The values below are quoted from earlier work in patent US8273706B2, “Isobarically labeled analytes and fragment ions derived therefrom” (DH Technologies Development Pte. Ltd., priority 2004, dated 2012).

For the series the following is noted: alcohol (leaving group) whose trifluoroacetate ester forms the active ester of N-methyl piperazine acetic acid.

Take `O=[N+]([O-])c1cccc(O)c1` [3-NP, 3-nitrophenol]: the pKa is listed as 8.33.

Turning to `O=c1c2ccccc2nnn1O` [Dhbt, 3-hydroxy-1,2,3-benzotriazine-4(3H)-one], the pKa was 7.78.

In the case of `O=C1CCCN1O` [NHP, N-hydroxypyrrolidinone], the pKa is 9.38.

In the case of `O=C1CCC(=O)N1O` [NHS, N-hydroxysuccinimide], the pKa was 7.80.

With `Oc1c(Cl)c(Cl)c(Cl)c(Cl)c1Cl` [Pcp, pentachlorophenol], the pKa is recorded as 4.68.

A word on the pKa: it is the negative logarithm of the acid dissociation constant.
